{"source": "ChEMBL document CHEMBL5705903", "about": "“A DNA Hypomethylation Signature Predicts Antitumor Activity of LSD1 Inhibitors in SCLC” (Cancer Cell, 2015)", "key": {"[1]": {"molecular_target": "cGMP-inhibited 3',5'-cyclic phosphodiesterase 3A (Homo sapiens, UniProt Q14432)", "sequence (Q14432 whole entry)": "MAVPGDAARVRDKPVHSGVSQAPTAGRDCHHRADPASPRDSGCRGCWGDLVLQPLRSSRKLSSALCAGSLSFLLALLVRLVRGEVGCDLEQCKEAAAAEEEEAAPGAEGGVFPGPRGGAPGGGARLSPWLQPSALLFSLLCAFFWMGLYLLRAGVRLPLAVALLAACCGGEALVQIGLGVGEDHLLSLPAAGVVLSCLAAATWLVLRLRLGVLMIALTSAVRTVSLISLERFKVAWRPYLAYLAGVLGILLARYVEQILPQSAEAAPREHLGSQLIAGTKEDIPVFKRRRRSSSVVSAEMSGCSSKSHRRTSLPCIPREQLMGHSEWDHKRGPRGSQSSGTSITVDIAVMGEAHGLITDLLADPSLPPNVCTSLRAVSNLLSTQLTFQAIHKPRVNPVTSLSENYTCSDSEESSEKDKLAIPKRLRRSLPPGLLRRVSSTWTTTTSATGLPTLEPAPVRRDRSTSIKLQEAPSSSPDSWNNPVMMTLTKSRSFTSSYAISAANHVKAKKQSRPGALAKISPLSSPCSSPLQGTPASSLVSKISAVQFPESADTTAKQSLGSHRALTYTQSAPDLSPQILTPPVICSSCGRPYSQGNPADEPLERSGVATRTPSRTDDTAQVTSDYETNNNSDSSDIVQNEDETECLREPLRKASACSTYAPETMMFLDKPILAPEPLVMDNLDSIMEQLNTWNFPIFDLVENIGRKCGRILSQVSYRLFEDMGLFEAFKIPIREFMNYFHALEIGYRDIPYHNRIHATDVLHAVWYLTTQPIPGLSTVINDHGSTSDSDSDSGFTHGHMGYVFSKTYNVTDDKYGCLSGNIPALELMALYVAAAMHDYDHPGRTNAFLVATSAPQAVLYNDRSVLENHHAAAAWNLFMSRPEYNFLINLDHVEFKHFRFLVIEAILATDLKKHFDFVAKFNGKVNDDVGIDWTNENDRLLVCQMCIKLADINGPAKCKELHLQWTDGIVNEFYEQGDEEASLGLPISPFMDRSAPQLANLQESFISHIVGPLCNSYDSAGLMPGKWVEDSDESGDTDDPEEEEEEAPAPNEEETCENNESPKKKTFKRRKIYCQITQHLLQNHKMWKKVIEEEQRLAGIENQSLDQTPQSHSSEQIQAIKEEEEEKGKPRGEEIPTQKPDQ", "test": "Inhibition of PDE3A (unknown origin)"}, "D(1A) dopamine receptor": {"molecular_target": "D(1A) dopamine receptor (Homo sapiens, UniProt P21728)", "sequence (P21728 whole entry)": "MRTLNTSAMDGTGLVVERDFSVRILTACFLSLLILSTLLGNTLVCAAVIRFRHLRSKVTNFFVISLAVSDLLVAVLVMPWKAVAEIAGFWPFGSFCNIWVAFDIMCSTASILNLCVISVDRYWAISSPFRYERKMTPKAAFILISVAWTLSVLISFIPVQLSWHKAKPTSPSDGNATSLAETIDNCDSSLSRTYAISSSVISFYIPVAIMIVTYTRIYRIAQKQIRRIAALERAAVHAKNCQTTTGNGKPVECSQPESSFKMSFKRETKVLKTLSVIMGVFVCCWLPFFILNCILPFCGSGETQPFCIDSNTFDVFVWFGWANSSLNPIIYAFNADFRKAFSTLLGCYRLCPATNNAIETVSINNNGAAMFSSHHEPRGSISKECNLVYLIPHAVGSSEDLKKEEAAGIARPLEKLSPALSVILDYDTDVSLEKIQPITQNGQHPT", "test": "Antagonist activity at Dopamine D1 receptor (unknown origin)", "assay_type": "functional"}, "[2]": {"test": "Inhibition of AChR receptor (unknown origin)", "parameters": "species or system Homo sapiens"}, "Aurora kinase B": {"molecular_target": "Aurora kinase B (Homo sapiens, UniProt Q96GD4)", "sequence (Q96GD4 whole entry)": "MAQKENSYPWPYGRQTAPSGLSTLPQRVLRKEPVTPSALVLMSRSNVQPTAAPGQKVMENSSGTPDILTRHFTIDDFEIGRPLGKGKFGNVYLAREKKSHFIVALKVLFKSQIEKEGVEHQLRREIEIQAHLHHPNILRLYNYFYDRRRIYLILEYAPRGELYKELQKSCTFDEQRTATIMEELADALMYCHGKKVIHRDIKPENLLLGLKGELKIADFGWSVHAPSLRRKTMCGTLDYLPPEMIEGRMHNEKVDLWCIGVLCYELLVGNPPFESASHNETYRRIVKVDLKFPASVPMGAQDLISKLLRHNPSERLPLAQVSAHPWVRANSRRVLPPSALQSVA", "test": "Inhibition of Aurora B (unknown origin)"}, "Substance-P receptor": {"molecular_target": "Substance-P receptor (Homo sapiens, UniProt P25103)", "sequence (P25103 whole entry)": "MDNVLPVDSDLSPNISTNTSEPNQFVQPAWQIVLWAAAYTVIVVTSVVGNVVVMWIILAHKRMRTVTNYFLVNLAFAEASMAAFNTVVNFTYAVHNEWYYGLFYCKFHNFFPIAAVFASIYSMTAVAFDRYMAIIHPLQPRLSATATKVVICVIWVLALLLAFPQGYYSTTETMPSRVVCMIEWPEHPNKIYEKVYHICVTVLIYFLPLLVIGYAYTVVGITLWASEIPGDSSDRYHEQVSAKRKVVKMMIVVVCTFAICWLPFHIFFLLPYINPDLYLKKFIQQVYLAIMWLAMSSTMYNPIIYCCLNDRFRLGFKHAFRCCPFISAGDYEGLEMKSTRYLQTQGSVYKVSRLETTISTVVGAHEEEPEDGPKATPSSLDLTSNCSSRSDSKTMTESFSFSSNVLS", "test": "Antagonist activity at NK1 receptor (unknown origin)", "assay_type": "functional"}, "Histamine H1 receptor": {"molecular_target": "Histamine H1 receptor (Homo sapiens, UniProt P35367)", "sequence (P35367 whole entry)": "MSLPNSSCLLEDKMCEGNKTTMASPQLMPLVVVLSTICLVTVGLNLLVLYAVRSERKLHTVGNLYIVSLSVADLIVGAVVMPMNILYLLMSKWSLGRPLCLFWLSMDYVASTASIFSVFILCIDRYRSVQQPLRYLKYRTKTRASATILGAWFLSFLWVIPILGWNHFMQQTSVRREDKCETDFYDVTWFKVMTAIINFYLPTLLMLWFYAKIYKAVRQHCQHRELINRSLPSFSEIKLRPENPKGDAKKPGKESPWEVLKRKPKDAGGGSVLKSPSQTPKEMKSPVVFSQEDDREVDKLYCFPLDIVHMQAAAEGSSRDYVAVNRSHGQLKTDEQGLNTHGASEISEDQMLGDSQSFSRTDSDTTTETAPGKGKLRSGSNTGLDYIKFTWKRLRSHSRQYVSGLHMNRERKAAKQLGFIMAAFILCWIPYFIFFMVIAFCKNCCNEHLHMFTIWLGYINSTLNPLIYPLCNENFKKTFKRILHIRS", "test": "Antagonist activity at Histamine H1 receptor (unknown origin)", "assay_type": "functional"}, "[3]": {"molecular_target": "Voltage-gated potassium channel, IKs; KCNQ1(Kv7.1)/KCNE1(MinK) (Homo sapiens, UniProt P15382+P51787)", "sequence (P51787 whole entry)": "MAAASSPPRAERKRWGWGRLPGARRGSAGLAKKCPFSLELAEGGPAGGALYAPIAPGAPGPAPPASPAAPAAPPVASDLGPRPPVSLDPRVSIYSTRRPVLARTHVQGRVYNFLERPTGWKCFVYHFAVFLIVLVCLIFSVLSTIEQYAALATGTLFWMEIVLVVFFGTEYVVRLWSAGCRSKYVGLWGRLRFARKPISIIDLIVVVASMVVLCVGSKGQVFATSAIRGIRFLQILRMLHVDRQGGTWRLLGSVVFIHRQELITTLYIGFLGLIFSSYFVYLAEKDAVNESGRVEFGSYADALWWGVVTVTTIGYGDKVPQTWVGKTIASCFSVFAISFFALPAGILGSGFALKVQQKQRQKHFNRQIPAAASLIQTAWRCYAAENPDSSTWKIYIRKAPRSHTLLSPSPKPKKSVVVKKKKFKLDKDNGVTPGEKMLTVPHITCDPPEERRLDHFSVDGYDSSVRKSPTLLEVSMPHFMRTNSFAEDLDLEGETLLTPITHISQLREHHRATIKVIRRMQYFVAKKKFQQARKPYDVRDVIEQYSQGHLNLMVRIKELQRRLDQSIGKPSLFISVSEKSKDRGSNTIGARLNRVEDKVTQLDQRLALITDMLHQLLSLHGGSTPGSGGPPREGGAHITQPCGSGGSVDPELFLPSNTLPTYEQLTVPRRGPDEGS", "test": "Inhibition of KCNQ1/minK (unknown origin)", "assay_type": "protein-complex assay"}, "[4]": {"molecular_target": "T1, Muscarinic acetylcholine receptor M1 (Homo sapiens, UniProt P11229)", "T1 sequence (P11229 whole entry)": "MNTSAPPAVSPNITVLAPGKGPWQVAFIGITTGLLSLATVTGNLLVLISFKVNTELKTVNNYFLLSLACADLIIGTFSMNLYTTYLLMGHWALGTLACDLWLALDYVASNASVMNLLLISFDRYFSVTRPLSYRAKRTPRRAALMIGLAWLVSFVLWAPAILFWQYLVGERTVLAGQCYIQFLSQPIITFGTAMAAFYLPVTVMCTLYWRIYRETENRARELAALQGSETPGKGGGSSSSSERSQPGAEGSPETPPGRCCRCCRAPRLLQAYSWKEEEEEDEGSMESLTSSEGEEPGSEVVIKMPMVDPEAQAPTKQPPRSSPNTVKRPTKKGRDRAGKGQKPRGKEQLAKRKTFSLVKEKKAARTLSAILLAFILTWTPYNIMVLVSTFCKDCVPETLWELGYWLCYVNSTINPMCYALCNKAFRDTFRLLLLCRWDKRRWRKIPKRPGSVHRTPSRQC", "test": "Antagonist activity at Muscarinic M1 receptor (unknown origin)", "assay_type": "functional"}, "[5]": {"test": "Effect on cleaved PARP level in human COLO-668 cells assessed as fold change at 1000 nM measured after 7 days by Western blot analysis (reference value: 1.00)", "assay_type": "functional", "conditions": "time 7 day"}, "[6]": {"test": "Effect on cleaved PARP level in human NCI-H1417 cells assessed as relative expression at 1000 nM measured after 10 days by Western blot analysis (reference value: 0.19)", "assay_type": "functional", "conditions": "time 10 day"}, "[7]": {"test": "Effect on cleaved PARP level in human COLO-668 cells assessed as relative expression at 10 nM measured after 10 days by Western blot analysis (reference value: 1.07)", "assay_type": "functional", "conditions": "time 10 day"}, "[8]": {"test": "Toxicity in dog assessed as myelofibrosis measured for 28 days", "parameters": "species or system Canis lupus familiaris", "conditions": "in vivo, 672 h, time 28 day"}, "[9]": {"test": "Effect on cleaved PARP level in human NCI-H889 cells assessed as fold change at 1000 nM measured after 14 days by Western blot analysis (reference value: 1.00)", "assay_type": "functional", "conditions": "time 14 day"}, "[10]": {"test": "Effect on cleaved PARP level in human NCI-H510 cells assessed as relative expression at 10 nM measured after 7 days by Western blot analysis (reference value: 0.24)", "assay_type": "functional, NCI-H510A", "conditions": "time 7 day"}, "[11]": {"test": "Effect on cleaved PARP level in human NCI-H69 cells assessed as fold change at 100 nM measured after 14 days by Western blot analysis (reference value: 1.00)", "assay_type": "functional", "conditions": "time 14 day"}, "[12]": {"test": "Effect on cleaved PARP level in human NCI-H524 cells assessed as fold change at 100 nM measured after 14 days by Western blot analysis (reference value: 1.00)", "assay_type": "functional", "conditions": "time 14 day"}, "[13]": {"test": "Effect on cleaved PARP level in human NCI-H2171 cells assessed as relative expression at 10 nM measured after 10 days by Western blot analysis (reference value: 0.02)", "assay_type": "functional", "conditions": "time 10 day"}, "[14]": {"test": "Effect on cleaved PARP level in human NCI-H1417 cells assessed as fold change at 100 nM measured after 10 days by Western blot analysis (reference value: 1.00)", "assay_type": "functional", "conditions": "time 10 day"}, "[15]": {"test": "Cmax in mouse blood at 5 mg/kg, po by HPLC/MS/MS analysis", "assay_type": "ADME, organism-based"}, "[16]": {"test": "Effect on cleaved PARP level in human NCI-H146 cells assessed as relative expression at 100 nM measured after 10 days by Western blot analysis (reference value: 0.27)", "assay_type": "functional", "conditions": "time 10 day"}, "[17]": {"test": "Toxicity in dog assessed as thrombocytopenia measured for 28 days", "parameters": "species or system Canis lupus familiaris", "conditions": "in vivo, 672 h, time 28 day"}, "[18]": {"test": "Effect on cleaved PARP level in human NCI-H524 cells assessed as fold change at 100 nM measured after 7 days by Western blot analysis (reference value: 1.00)", "assay_type": "functional", "conditions": "time 7 day"}, "NCI-H526": {"tested_on": "NCI-H526", "test": "In vivo inhibition of LSD1 in human NCI-H526 cells xenografted in nude mouse assessed as change in UMODL1 gene expression administrated daily for 5 days by qRT-PCR analysis", "assay_type": "functional, organism-based", "conditions": "dose 0.02-135 mg/kg, time 5.0 day"}, "[19]": {"test": "Effect on cleaved PARP level in human NCI-H2171 cells assessed as relative expression at 100 nM measured after 10 days by Western blot analysis (reference value: 0.02)", "assay_type": "functional", "conditions": "time 10 day"}, "[20]": {"test": "Effect on cleaved PARP level in human NCI-H524 cells assessed as relative expression at 1000 nM measured after 7 days by Western blot analysis (reference value: 0.63)", "assay_type": "functional", "conditions": "time 7 day"}, "[21]": {"test": "Toxicity in rat assessed as declining clinical condition measured for 28 days", "conditions": "in vivo, 672 h, time 28 day"}, "[22]": {"test": "Effect on cleaved PARP level in human NCI-H146 cells assessed as fold change at 10 nM measured after 7 days by Western blot analysis (reference value: 1.00)", "assay_type": "functional", "conditions": "time 7 day"}, "NCI-H446": {"tested_on": "NCI-H446", "test": "Effect on SYP gene expression in human NCI-H446 cells at 1 uM measured after 4 days by qRT-PCR analysis", "assay_type": "functional, cell-based", "conditions": "time 4.0 day"}, "[23]": {"test": "Half life in mouse tumor at 5 mg/kg, po by HPLC/MS/MS analysis", "assay_type": "ADME, organism-based, Neoplasm"}, "COLO-668": {"tested_on": "COLO-668", "test": "Effect on NCAM gene expression in human COLO-668 cells at 1 uM measured after 4 days by qRT-PCR analysis", "assay_type": "functional, cell-based", "conditions": "time 4.0 day"}, "[24]": {"test": "Antitumor activity against human PDX L36 cells xenografted in mouse assessed as tumor growth inhibition at 1.5 mg/kg administered daily measured for 20 days relative to control", "assay_type": "functional", "conditions": "PDX LX36, 480 h, time 20 day, read-out: TGI"}, "[25]": {"test": "Effect on cleaved PARP level in human NCI-H1417 cells assessed as fold change at 100 nM measured after 14 days by Western blot analysis (reference value: 1.00)", "assay_type": "functional", "conditions": "time 14 day"}, "[26]": {"test": "Effect on cleaved PARP level in human NCI-H1417 cells assessed as fold change at 1000 nM measured after 10 days by Western blot analysis (reference value: 1.00)", "assay_type": "functional", "conditions": "time 10 day"}, "NCI-H510A": {"tested_on": "NCI-H510A", "test": "Antitumor activity against human NCI-H510A cells xenografted in nude mouse assessed as mean tumor volume at 1.5 mg/kg, po administered daily measured twice weekly (reference value: 1028 +/- 182 mm3)", "assay_type": "functional"}}, "note": "Active and inactive are the calls of the source. No cut-off for these calls is given here."}
{"smiles": "c1ccc([C@@H]2C[C@H]2NC2CCNCC2)cc1", "values": [{"measurement": "IC50", "setting": "[1]", "value": "> 100", "unit": "µM"}, {"measurement": "EC50", "setting": "D(1A) dopamine receptor", "value": "> 100", "unit": "µM"}, {"measurement": "IC50", "setting": "[2]", "value": "> 50", "unit": "µM"}, {"measurement": "IC50", "setting": "Aurora kinase B", "value": "> 32", "unit": "µM"}, {"measurement": "EC50", "setting": "Substance-P receptor", "value": "> 25", "unit": "µM"}, {"measurement": "EC50", "setting": "Histamine H1 receptor", "value": "> 25", "unit": "µM"}, {"measurement": "IC50", "setting": "[3]", "value": "> 25", "unit": "µM"}, {"measurement": "EC50", "setting": "[4]", "value": "> 30", "unit": "µM"}]}
{"smiles": "O=C(O)c1ccc(CN2CCC(CN[C@@H]3C[C@H]3c3ccccc3)CC2)cc1", "note": "[GSK2879552]", "values": [{"measurement": "fold change (FC)", "setting": "[5]", "value": 0.95}, {"measurement": "Activity", "setting": "[6]", "value": 0.4}, {"measurement": "Activity", "setting": "[7]", "value": 0.81}, {"measurement": "Activity", "setting": "[8]", "value": "Toxic"}, {"measurement": "IC50", "setting": "[1]", "value": "> 100", "unit": "µM"}, {"measurement": "fold change (FC)", "setting": "[9]", "value": 2.82}, {"measurement": "Activity", "setting": "[10]", "value": 0.3}, {"measurement": "EC50", "setting": "D(1A) dopamine receptor", "value": "> 32", "unit": "µM"}, {"measurement": "fold change (FC)", "setting": "[11]", "value": 5.03}, {"measurement": "fold change (FC)", "setting": "[12]", "value": 0.74}, {"measurement": "IC50", "setting": "[2]", "value": "> 50", "unit": "µM"}, {"measurement": "Activity", "setting": "[13]", "value": 0.02}, {"measurement": "fold change (FC)", "setting": "[14]", "value": 2.14}, {"measurement": "IC50", "setting": "Aurora kinase B", "value": "> 32", "unit": "µM"}, {"measurement": "EC50", "setting": "Substance-P receptor", "value": "> 40", "unit": "µM"}, {"measurement": "EC50", "setting": "Histamine H1 receptor", "value": "> 40", "unit": "µM"}, {"measurement": "Cmax", "setting": "[15]", "value": 720, "unit": "ng/mL"}, {"measurement": "Activity", "setting": "[16]", "value": 0.25}, {"measurement": "Activity", "setting": "[17]", "value": "Toxic"}, {"measurement": "fold change (FC)", "setting": "[18]", "value": 0.95}, {"measurement": "inhibition", "setting": "NCI-H526", "value": "Dose-Dependent Effect"}, {"measurement": "Activity", "setting": "[19]", "value": 0.02}, {"measurement": "Activity", "setting": "[20]", "value": 1.12}, {"measurement": "Activity", "setting": "[21]", "value": "Toxic"}, {"measurement": "IC50", "setting": "[3]", "value": "> 25", "unit": "µM"}, {"measurement": "fold change (FC)", "setting": "[22]", "value": 1.09}, {"measurement": "Activity", "setting": "NCI-H446", "value": "inactive"}, {"measurement": "half-life", "setting": "[23]", "value": 8.4, "unit": "h"}, {"measurement": "Activity", "setting": "COLO-668", "value": "inactive"}, {"measurement": "EC50", "setting": "[4]", "value": "> 16", "unit": "µM"}, {"measurement": "inhibition in vivo at 1.5 mg/kg", "setting": "[24]", "value": 19, "unit": "%"}, {"measurement": "fold change (FC)", "setting": "[25]", "value": 0.83}, {"measurement": "fold change (FC)", "setting": "[26]", "value": 2.12}, {"measurement": "Activity", "setting": "NCI-H510A", "value": 705, "unit": "mm3"}]}
